Measured values: patent US12662475B2, “Difluorocyclohexyl derivatives as IL-17 modulators” (UCB BIOPHARMA SRL, priority 2020, dated 2026)
Where a name gives a salt, the structure may show the parent alone.

Tested on: IL-17 induced IL-6 release from human dermal fibroblasts
Test: Inhibition of IL-17A induced IL-6 release from dermal fibroblast cell line (HDF cell line assay)
Format: cell-based
Details: Incubation Time 5 h
Method: Inhibition of IL-17A Induced IL-6 Release from Dermal Fibroblast Cell Line
The purpose of this assay is to test the neutralising ability to IL-17 proteins, in a human primary cell system.
The resultant IL-6 response was then measured using a homogenous time-resolved FRET kit from Cisbio. The kit utilises two monoclonal antibodies, one labelled with Eu-Cryptate (Donor) and the second with d2 or XL665 (Acceptor).
The ability of a compound to inhibit IL-17 induced IL-6 release from human dermal fibroblasts is measured in this assay.
The TrypLE was neutralised using complete medium (45 mL) and the cells were centrifuged at 300×g for 3 minutes. […] The cells were left for a minimum of three hours, at 37° C./5% CO2, to adhere to the plate.
10 μL from the aqueous dilution plate was transferred to the reagent plate containing 30 μL of the diluted cytokines, to give a 2.5% DMSO solution. The compounds were incubated with the cytokine mixtures for 1 h or 5 h at 37° C. After the incubation, 10 μL was transferred to the assay plate, to give a […] solution, then incubated for 18-20 h at 37° C./5% CO2.

SMILES	IC50 [nM]
CC(C)n1ncnc1C(=O)N[C@H](c1nc2nc(C3(C(=O)NCC(F)(F)F)CCC(F)(F)CC3)ccc2[nH]1)C1CCC(F)(F)CC1 [Example 77, N—[(S)-(4,4-Difluorocyclohexyl){5-[4,4-difluoro-1-(2,2,2-trifluoroethylcarbamoyl)-cyclohexyl]-1H-imidazo[4,5-b]pyridin-2-yl}methyl]-2-isopropyl-1,2,4-triazole-3-carboxamide]	12.6
Cc1nonc1C(=O)N[C@H](c1nc2c(F)c([C@@H](CC(F)(F)F)C(=O)NCC(F)F)ccc2[nH]1)C1CCC(F)(F)CC1 (single isomer, unassigned) [Example 38]	100
CC(C)n1ncnc1C(=O)N[C@H](c1nc2c(F)c([C@@H](CC(F)(F)F)C(=O)NCC(C)(F)F)ccc2[nH]1)C1CCC(F)(F)CC1 (single isomer, unassigned) [Example 69]	2510
Cc1nonc1C(=O)N[C@H](c1nc2c(F)c(C(CC(F)F)C(=O)NCC(F)(F)F)ccc2[nH]1)C1CCC(F)(F)CC1 (mixture of isomers) [Example 40, N—[(S)-(4,4-Difluorocyclohexyl){5-[3,3-difluoro-1-(2,2,2-trifluoroethylcarbamoyl)-propyl]-4-fluoro-1H-benzimidazol-2-yl}methyl]-4-methyl-1,2,5-oxadiazole-3-carboxamide]	7.94
CC(F)(F)CNC(=O)[C@H](CC(F)(F)F)c1ccc2[nH]c([C@@H](NC(=O)C3(F)CC3)C3CCC(F)(F)CC3)nc2c1F (single isomer, unassigned) [Example 83]	2000
CC(C)n1ncnc1C(=O)N[C@H](c1nc2c(F)c(C(CC(F)(F)F)C(=O)NCC(C)(C)F)ccc2[nH]1)C1CCC(F)(F)CC1 (mixture of isomers) [Example 71, N—[(S)-(4,4-Difluorocyclohexyl)(4-fluoro-5-{3,3,3-trifluoro-1-[(2-fluoro-2-methyl-propyl)carbamoyl]propyl}-1H-benzimidazol-2-yl)methyl]-2-isopropyl-1,2,4-triazole-3-carboxamide]	25.1
Cc1nonc1C(=O)N[C@H](c1nc2c(F)c(C(CC(F)(F)F)C(=O)NCC(F)F)ccc2[nH]1)C1CCC(F)(F)CC1 (mixture of isomers) [Example 36, N—[(S)-(4,4-Difluorocyclohexyl){5-[1-(2,2-difluoroethylcarbamoyl)-3,3,3-trifluoro-propyl]-4-fluoro-1H-benzimidazol-2-yl}methyl]-4-methyl-1,2,5-oxadiazole-3-carboxamide]	31.6
CC(F)(F)CNC(=O)[C@@H](CC(F)(F)F)c1ccc2[nH]c([C@@H](NC(=O)C3(F)CC3)C3CCC(F)(F)CC3)nc2c1F (single isomer, unassigned) [Example 84]	25.1
Cc1nonc1C(=O)N[C@H](c1nc2c(F)c([C@@H](CC(F)F)C(=O)NCC(F)(F)F)ccc2[nH]1)C1CCC(F)(F)CC1 (single isomer, unassigned) [Example 42]	126
O=C(N[C@H](c1nc2c(F)c([C@@H](CC(F)F)C(=O)NCC(F)(F)F)ccc2[nH]1)C1CCC(F)(F)CC1)c1ccccc1F (single isomer, unassigned) [Example 51]	1580
CC(C)n1ncnc1C(=O)N[C@H](c1nc2c(F)c([C@H](CC(F)F)C(=O)NCC(C)(F)F)ccc2[nH]1)C1CCC(F)(F)CC1 (single isomer, unassigned) [Example 55]	3.98
Cc1nonc1C(=O)N[C@H](c1nc2c(F)c([C@@H](CC(F)F)C(=O)N[C@@H](C)C(F)(F)F)ccc2[nH]1)C1CCC(F)(F)CC1 (single isomer, unassigned) [Example 45]	501
Cc1nonc1C(=O)N[C@H](c1nc2c(F)c([C@H](CC(F)(F)F)C(=O)NCC(F)F)ccc2[nH]1)C1CCC(F)(F)CC1 (single isomer, unassigned) [Example 37]	15.8
O=C(N[C@H](c1nc2c(F)c(C(CC(F)F)C(=O)NCC(F)(F)F)ccc2[nH]1)C1CCC(F)(F)CC1)c1ccccc1F (mixture of isomers) [Example 49, N—[(S)-(4,4-Difluorocyclohexyl){5-[3,3-difluoro-1-(2,2,2-trifluoroethylcarbamoyl)-propyl]-4-fluoro-1H-benzimidazol-2-yl}methyl]-2-fluorobenzamide]	31.6
CC(C)n1ncnc1C(=O)N[C@H](c1nc2c(F)c([C@@H](CC(F)F)C(=O)NCC(C)(C)F)ccc2[nH]1)C1CCC(F)(F)CC1 (single isomer, unassigned) [Example 57]	2510
Cc1nonc1C(=O)N[C@H](c1nc2nc(C3(C(=O)NCC(F)(F)F)CCC(F)(F)CC3)ccc2[nH]1)C1CCC(F)(F)CC1 [Example 39, N—[(S)-(4,4-Difluorocyclohexyl){5-[4,4-difluoro-1-(2,2,2-trifluoroethylcarbamoyl)-cyclohexyl]-1H-imidazo[4,5-b]pyridin-2-yl}methyl]-4-methyl-1,2,5-oxadiazole-3-carboxamide Monoformate Salt]	5.01
CCS(=O)(=O)CC[C@H](C(=O)N1CC(F)(F)C(F)(F)C1)c1ccc2[nH]c([C@@H](NC(=O)c3nonc3C)C3CCC(F)(F)CC3)nc2c1F (single isomer, unassigned) [Example 28]	3.16
Cc1nonc1C(=O)N[C@H](c1nc2c(F)c([C@H](CC(F)F)C(=O)N[C@@H](C)C(F)(F)F)ccc2[nH]1)C1CCC(F)(F)CC1 (single isomer, unassigned) [Example 44]	10
Cc1nonc1C(=O)N[C@H](c1nc2c(F)c(C(CC(F)F)C(=O)N[C@H](C)C(F)(F)F)ccc2[nH]1)C1CCC(F)(F)CC1 (mixture of isomers) [Example 46, N—{(S)-(4,4-Difluorocyclohexyl)[5-(3,3-difluoro-1-{[(1R)-2,2,2-trifluoro-1-methylethyl]-carbamoyl}propyl)-4-fluoro-1H-benzimidazol-2-yl]methyl}-4-methyl-1,2,5-oxadiazole-3-carboxamide]	398
CC(C)(F)CNC(=O)[C@H](CC(F)(F)F)c1ccc2[nH]c([C@@H](NC(=O)c3nonc3C3CC3)C3CCC(F)(F)CC3)nc2c1F (single isomer, unassigned) [Example 63]	158
Cc1nonc1C(=O)N[C@H](c1nc2c(F)c(C(CC(F)(F)F)C(=O)NCC(F)(F)F)ccc2[nH]1)C1CCC(F)(F)CC1 (mixture of isomers) [Example 33, N—[(S)-(4,4-Difluorocyclohexyl){4-fluoro-5-[3,3,3-trifluoro-1-(2,2,2-trifluoroethyl-carbamoyl)propyl]-1H-benzimidazol-2-yl}methyl]-4-methyl-1,2,5-oxadiazole-3-carboxamide]	3.98
CC(C)(F)CNC(=O)[C@@H](CC(F)(F)F)c1ccc2[nH]c([C@@H](NC(=O)c3nonc3C3CC3)C3CCC(F)(F)CC3)nc2c1F (single isomer, unassigned) [Example 64]	2
Cc1nonc1C(=O)N[C@H](c1nc2c(F)c([C@@H](CC(F)F)C(=O)N[C@H](C)C(F)(F)F)ccc2[nH]1)C1CCC(F)(F)CC1 (single isomer, unassigned) [Example 48]	3160
CC(C)n1ncnc1C(=O)N[C@H](c1nc2c(F)c(C(CC(F)(F)F)C(=O)NCC(C)(F)F)ccc2[nH]1)C1CCC(F)(F)CC1 (mixture of isomers) [Example 68, N—[(S)-(4,4-Difluorocyclohexyl){5-[1-(2,2-difluoropropylcarbamoyl)-3,3,3-trifluoro-propyl]-4-fluoro-1H-benzimidazol-2-yl}methyl]-2-isopropyl-1,2,4-triazole-3-carboxamide]	12.6
Cc1nonc1C(=O)N[C@H](c1nc2c(F)c([C@@H](CC(F)(F)F)C(=O)N[C@@H](C)C(F)(F)F)ccc2[nH]1)C1CCC(F)(F)CC1 (single isomer, unassigned) [Example 26]	126
CCS(=O)(=O)CC[C@@H](C(=O)N1CC(F)(F)C(F)(F)C1)c1ccc2[nH]c([C@@H](NC(=O)c3nonc3C)C3CCC(F)(F)CC3)nc2c1F (single isomer, unassigned) [Example 29]	126
Cc1nonc1C(=O)N[C@H](c1nc2c(F)c(C(CC(F)F)C(=O)N[C@@H](C)C(F)(F)F)ccc2[nH]1)C1CCC(F)(F)CC1 (mixture of isomers) [Example 43, N—{(S)-(4,4-Difluorocyclohexyl)[5-(3,3-difluoro-1-{[(1S)-2,2,2-trifluoro-1-methylethyl]-carbamoyl}propyl)-4-fluoro-1H-benzimidazol-2-yl]methyl}-4-methyl-1,2,5-oxadiazole-3-carboxamide]	50.1
